The series is classed as physicochemical. As to the method: Thermogravimetric analysis (TGA) was performed using a Mettler TGA 2 equipped with a 34 position auto-sampler. The instrument was calibrated for energy and temperature using certified Isoderm and Nickel. 10.01 mg of the ceramide NP powder of Example 1 was added to a pinhole aluminum pan and heated from 20° C. to 800° C. at 10° C./min to perform thermogravimetric analysis. The TGA results of the ceramide NP powder of Example 1 are shown in FIG. 7, and the TGA results of the ceramide NP powder of Comparative Example 1 are shown in FIG. 8. The TGA results of ceramide NP powder of Example 1 and the ceramide NP powder of Comparative Example 1 are compared to each other by being arranged to overlap each other in FIG. 9.

As for `CCCCCCCC/C=C\CCCCCCCC(=O)N[C@@H](CO)[C@H](O)[C@H](O)CCCCCCCCCCCCCC` [Example 1, ceramide NP], the mass remaining result is “about 95%” and the “stability compared with ceramide NP powder of Comparative Example 1” value is “more stable”. Also, the “temperature at which decomposition began (no weight loss until then)” value (TGA, heated from 20° C. to 800° C. at 10° C./min) is 200 °C.
With “ceramide NP [Comparative Example 1, reference compound]”, the mass remaining result is reported as “about 95%”.

The record behind these values is patent US20260283927A1, “CRYSTALLINE FORM OF CERAMIDE NP AND COMPOSITION INCLUDING THE SAME” (CRODA KOREA LTD., priority 2023, published 2026).
